# How the values were obtained:
# EGFR = molecular target: T1, EGFR (Homo sapiens, UniProt P00533); assay: In vitro kinase assay, EGFR; type: biochemical; details: ATP 50 μM, average of three independent experiments in duplicate, read-out: IC50 EGFR kinase inhibition
# T1 construct: purchased Enzo Life Sciences Inc, NY, USA; Signal Chem, Richmond, Canada
# Description: (§1) The EGFR and c-Src kinase assays were performed in 96-well plates (NuncMaxisorp) coated with PGT (poly L-glutamic acid L-tyrosine, 4:1, Sigma Aldrich, MO, USA) and incubated at 37°C for 48h prior to using. PGT served as the substrate to be phosphorylated by EGFR (Enzo Life Sciences Inc, NY, USA, Signal Chem, Richmond, Canada) and c-Src (Enzo Life Sciences Inc, NY, USA, Signal Chem, Richmond, Canada) in the presence of ATP (50 μM). […] To each well, 15 ng of EGFR (20 μg/ml) or 6 ng of c-Src (0.1 μg/μl) were added. The phosphorylated substrate was detected using an HRP-conjugated anti-phosphotyrosine antibody (Santa Cruz Biotechnology, CA). The signal was developed by the addition of 3, 3’, 5, 5’-tetramethylbenzidine peroxidase substrate (Kierkegaard and Perry Laboratories, Gaithersburg, MD) and the colorimetric reaction was monitored at 450 nm using a microplate reader ELx808 (BioTek Instruments). The IC50 values were calculated using GraphPad Prism 6.0 (GraphPadSoftware, Inc., San Diego, CA). Each experiment was carried out at least three times, in duplicate.
# c-Src = molecular target: T2, c-Src (Homo sapiens, UniProt P12931); assay: In vitro kinase assay, c-Src; type: biochemical; details: ATP 50 μM, read-out: IC50 c-Src kinase inhibition
# T2 construct: purchased Enzo Life Sciences Inc, NY, USA; Signal Chem, Richmond, Canada
# Description: as §1
# 4T1 cells [1] = assay: Wound-healing assay, 4T1; type: cell-based, mouse; details: 4T1, 0.1 μM, 24h drug exposure
# Description: (§2) MDA-MB-231 and 4T1 cells were plated in 6-well plates (500,000 cells/well) and allowed to attach overnight (37°C, 5% CO2). The following day, media was removed and a cross scratch was made in the middle of the cell monolayer. […] The scratch was visualized at two different time points (0 and 24h) using the Leica DM IL inverted microscope (10X) and images were obtained using the Leica DFC300FX camera.
# MDA-MB-231 cells [2] = assay: Wound-healing assay, MDA-MB-231; type: cell-based, human; details: MDA-MB-231, 0.1 μM, 24h drug exposure
# Description: as §2
# 4T1 cells [3] = assay: Boyden chamber invasion assay, 4T1; type: cell-based, mouse; details: 4T1, concentration as low as 0.1 μM, 24h
# Description: (§3) The invasive property of MDA-MB-231 and 4T1 cells was determined using the Boyden-chamber invasion assay. Cells suspended in serum-free media were plated (120–150,000 cells/well) onto polycarbonate transwell inserts (8 μm pore size, BD Biosciences) coated with matrigel (6%) (BD Biosciences), separating the top and bottom chambers (50 μl/filter). […] The invasive property of cells was observed 24h after treatment by fixing cells in formalin and staining with 0.1% crystal violet (Sigma-Aldrich Canada Ltd). Cells attached on the upper surface of the insert (top chamber) were removed by gently scraping away with a cotton swab, whereas those that invaded onto the lower side of the insert were observed using a microscope (Leica DM IL inverted microscope, 10X). Images of five non-overlapping fields of invading cells were captured using the Leica DFC300FX camera and quantification was done using the Scion Image Analysis (3.53.0.0) software and ImageJ 1.46r software. The results were expressed in terms of percentage of invading cells relative to control and the bar graphs represent the average of three independent experiments.
# MDA-MB-231 cells [4] = assay: Boyden chamber invasion assay, MDA-MB-231; type: cell-based, human; details: MDA-MB-231, concentration as low as 0.1 μM, 24h
# Description: as §3
# [5] = system: NIH3T3 wild type and EGFR transfected cells; assay: Apoptosis by annexin V/PI flow cytometry; type: cell-based, mouse; details: 48h
# Description: NIH3T3 cell lines (wild type and EGFR transfected) were plated in 6-well plates (500,000 cells/well) and allowed to grow overnight (37°C, 5% CO2). […] They were subsequently collected using trypsin (Wisent Inc., St-Bruno, Canada), centrifuged (2000 rpm, 5 min), rinsed with PBS and centrifuged again to obtain a cell pellet. The pellet was re-suspended in binding buffer (1X) and prior to being analyzed, annexin V-FITC and PI stains (eBioscience, San Diego, CA, USA) were added to the cells and incubated for 15 min in the dark at 4°C. Annexin V–FITC and PI binding were analyzed with a Becton Dickinson FACScan. Data were collected using logarithmic amplification of both the FL1 (FITC) and FL2 (PI) channels. Quadrant analysis of coordinate dot plots was done with CellQuestPro software. The experiment was carried out three times.
# MDA-MB-231 cells [6] = assay: Growth inhibition, SRB assay, MDA-MB-231; details: Homo sapiens, MDA-MB-231, 120 h, read-out: IC50 growth inhibition MDA-MB-231
# Description: (§4) Growth inhibition was measured in cells using the sulforhodamine B (SRB) assay [48]. […] The plates were subsequently rinsed with 1% acetic acid, and allowed to dry overnight. […] The results were analyzed using GraphPad Prism 6.0 (GraphPadSoftware, Inc., San Diego, CA) and the sigmoidal dose response curve was used to determine IC50 values. Each experiment was carried out at least four times, in triplicate.
# [7] = system: NIH3T3-Her14 (EGFR transfected) cells; assay: Growth inhibition, SRB assay, NIH3T3-Her14
# Description: as §4
# [8] = system: c-Src phosphorylation in 4T1 tumours; assay: Pharmacodynamics in 4T1 tumours, c-Src phosphorylation; details: i.v., AL776 40 mg/kg, gefitinib + dasatinib 20 mg/kg each
# Description: Mice were implanted with 4T1 mammary tumour cells, 15 million cells/flank (suspended in 200 μL PBS), subcutaneously.
# Mice were sacrificed 1h or 24h after treatment and their tumours were collected and snap frozen at -80°C for further analysis using western blots. Tumours were crushed using a mortar/pestle chilled using liquid nitrogen and lysed with RIPA buffer diluted to a 1X concentration and supplemented with 1mM PMSF (Cell Signaling Technology, USA). Western blot analysis was carried out with the tumour samples, similar to the method described earlier.
# T2 sequence (P12931 whole entry): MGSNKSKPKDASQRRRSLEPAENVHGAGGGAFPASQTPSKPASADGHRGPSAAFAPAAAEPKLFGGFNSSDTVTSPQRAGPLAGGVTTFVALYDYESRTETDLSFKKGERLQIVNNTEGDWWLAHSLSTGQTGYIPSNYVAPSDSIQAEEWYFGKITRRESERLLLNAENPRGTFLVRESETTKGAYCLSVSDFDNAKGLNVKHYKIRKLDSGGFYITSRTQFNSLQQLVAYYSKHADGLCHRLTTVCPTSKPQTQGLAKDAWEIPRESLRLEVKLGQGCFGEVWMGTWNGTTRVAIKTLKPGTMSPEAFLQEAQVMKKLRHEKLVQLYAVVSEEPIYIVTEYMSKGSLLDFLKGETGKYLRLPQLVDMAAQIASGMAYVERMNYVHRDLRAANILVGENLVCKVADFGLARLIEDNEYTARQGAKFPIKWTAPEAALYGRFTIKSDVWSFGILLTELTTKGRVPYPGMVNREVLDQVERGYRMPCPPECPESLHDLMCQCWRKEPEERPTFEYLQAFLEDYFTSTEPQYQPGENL
# T1 sequence (P00533 25-1210): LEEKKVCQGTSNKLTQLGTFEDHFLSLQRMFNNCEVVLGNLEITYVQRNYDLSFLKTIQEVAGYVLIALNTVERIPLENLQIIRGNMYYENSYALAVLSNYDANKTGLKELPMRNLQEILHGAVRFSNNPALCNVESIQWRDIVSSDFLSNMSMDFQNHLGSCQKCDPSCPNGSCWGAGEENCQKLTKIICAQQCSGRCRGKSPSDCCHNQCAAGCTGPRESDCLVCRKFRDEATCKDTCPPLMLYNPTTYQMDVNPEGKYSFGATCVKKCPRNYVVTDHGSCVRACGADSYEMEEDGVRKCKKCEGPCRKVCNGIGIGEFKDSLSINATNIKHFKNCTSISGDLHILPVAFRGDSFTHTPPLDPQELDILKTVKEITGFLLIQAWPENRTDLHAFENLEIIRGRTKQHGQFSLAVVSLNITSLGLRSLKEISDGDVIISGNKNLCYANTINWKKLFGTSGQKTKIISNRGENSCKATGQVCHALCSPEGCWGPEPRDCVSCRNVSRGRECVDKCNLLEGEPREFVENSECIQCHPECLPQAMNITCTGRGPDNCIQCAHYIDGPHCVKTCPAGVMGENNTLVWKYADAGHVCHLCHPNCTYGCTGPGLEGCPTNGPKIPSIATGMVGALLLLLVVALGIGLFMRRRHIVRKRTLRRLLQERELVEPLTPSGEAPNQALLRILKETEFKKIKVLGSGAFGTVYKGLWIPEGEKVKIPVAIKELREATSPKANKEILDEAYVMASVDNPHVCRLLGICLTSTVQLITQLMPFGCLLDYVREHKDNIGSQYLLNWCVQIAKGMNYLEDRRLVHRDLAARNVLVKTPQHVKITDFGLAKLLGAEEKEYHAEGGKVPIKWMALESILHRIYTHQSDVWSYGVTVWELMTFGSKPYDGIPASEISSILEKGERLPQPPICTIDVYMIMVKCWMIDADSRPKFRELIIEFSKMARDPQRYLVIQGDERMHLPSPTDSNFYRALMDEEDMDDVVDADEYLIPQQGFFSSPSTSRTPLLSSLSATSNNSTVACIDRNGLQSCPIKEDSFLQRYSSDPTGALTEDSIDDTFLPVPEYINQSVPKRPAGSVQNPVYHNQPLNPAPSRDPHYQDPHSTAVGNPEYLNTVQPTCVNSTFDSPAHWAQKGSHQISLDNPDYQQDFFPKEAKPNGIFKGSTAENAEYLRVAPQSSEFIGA
compound,measurement,setting,value
Cc1nc(Nc2ncc(C(=O)Nc3c(C)cccc3Cl)s2)cc(N2CCN(CCOC(=O)CCC(=O)OCCN(C)Cc3ccc(C(=O)Nc4ccc5ncnc(Nc6cccc(Cl)c6)c5c4)cc3)CC2)n1 [AL776],IC50,EGFR,120 nM
same,IC50,c-Src,3 nM
same,Effect on wound-closure,4T1 cells [1],blocked wound-closure
same,Effect on wound-closure,MDA-MB-231 cells [2],blocked wound-closure
same,Effect on invasion,4T1 cells [3],strongly inhibited invasion
same,Effect on invasion,MDA-MB-231 cells [4],strongly inhibited invasion
same,Level of apoptosis (early + late),[5]; 1μM dose,higher level of apoptosis than gefitinib or dasatinib
same,Lowest concentration inducing apoptosis,[5],1 µM
same,IC50,MDA-MB-231 cells [6],50 ± 4 nM
same,Rank of growth inhibitory potency among the binary targeting molecules,"[7]; EGFR transfectant, S2 Fig.",most potent on the EGFR transfectant
same,IC50,"[7]; Mus musculus, 120 h, read-out: IC50 growth inhibition NIH3T3 – Her14",180 nM
same,Growth inhibitory potency compared with gefitinib or dasatinib,"[7]; NIH3T3-Her14 cells, 5 days",2–4 fold
same,Inhibition of c-Src phosphorylation in tumours,[8]; 1h post-administration,strong blockade
same,Inhibition of c-Src phosphorylation in tumours,[8]; 24 h post-treatment,reversed

# Reference: publication PMC4414309, “Target Modulation by a Kinase Inhibitor Engineered to Induce a Tandem Blockade of the Epidermal Growth Factor Receptor (EGFR) and c-Src: The Concept of Type III Combi-Targeting” (PLoS ONE, 2015)
